Data as given in patent publication US20070036843A1, “Non-ionic non-aqueous vehicles for topical and oral administration of carrier-complexed active agents” (Collegium Pharmaceutical, Inc., priority 2005, published 2007).

Assay: Release of albuterol from resinate in various vehicles (membrane-bottomed insert over wells of aqueous solution, simulating topical application to skin)
Format: physicochemical
Details: room temperature, sampled 0.5, 1, 2 and 4 hours
Method: Albuterol was detected by HPLC on a Waters “Resolve” 5 micron spherical C18 resin column, with a mobile phase of 70% buffer and 30% methanol. Buffer was 4.4 g 1-heptane sulfonic acid in 100 g DI water, adjusted to pH 3.2±0.1 with glacial acetic acid. Albuterol extraction solvent was 10% v/v 0.5 M Na Acetate in ethanol. A stock solution of 0.5 mg albuterol/ml extraction buffer was diluted with 25 volumes of “diluent” (30:70 methanol:DI water, v:v) at the time of use. Samples were extracted to determine albuterol content by transferring 200 mg albuterol resin to a 250 ml flask, using extraction solvent; bringing the volume to about 220 ml of extraction solvent; shaking overnight at room temperature; adding extraction solvent to 250 ml; filtering an aliquot; and diluting filtered solution with 24 volumes of diluent. This solution was analyzed by HPLC, and the amount was determined by comparison with a chromatogram of the standard.
A system was developed to simulate the effects of topical application of a resin-bound drug in a vehicle to skin. […]
The experimental design allowed the pores of the membrane to fill with the aqueous solution. […] Wells were sampled at various times and the fluid was analyzed for albuterol. […]
7.5 g phosphate buffer (pH 6.8; 0.05 M) was added to each well. […] The inserts were removed, and the fluid in the wells (12 in all) was analyzed for albuterol by HPLC. […]

Release of albuterol (albuterol resinate directly in ionic aqueous solution (phosphate buffer pH 6.8, 0.05 M), no vehicle, compared with NINA vehicles): fastest
Release of albuterol (albuterol resinate in hydrophobic castor oil/colloidal silica (2.5%) vehicle without surfactant, phosphate buffer pH 6.8 in well): not detectable
SMILES: CC(C)(C)NCC(O)c1ccc(O)c(CO)c1 (centres unmarked) [albuterol, Albuterol]
